Experimental data: patent US5656660A, “Compositions and methods for treating mast-cell mediated conditions” (Arris Pharmaceutical Corporation, priority 1995, dated 1997)

target: tryptase; assay: In vitro tryptase inhibition assay; format: biochemical, human; details: tosyl-Gly-Pro-Lys-p-nitroanilide 0.5 mM; 1 h preincubation at room temperature; pH 8.2
Experimental: The compounds to be assayed (approximately 1 mg) were dissolved in 200 μL dimethylsulfoxide (DMSO) and diluted 1:10 into buffer containing 50 millimolar (mM) Tris-HCl (pH 8.2), 100 mM sodium chloride, and 0.05% polyoxyethylenesorbitan monolaurate (Tween-20°, available from Sigma, St. Louis, Mo.). Seven additional threefold dilutions were made from the initial dilution into the same buffer supplemented with 10% DMSO. Aliquots (50 microliters, μL) from each of the eight dilutions in the series were transferred to individual wells in a 96-well U-bottom microtiter plate. […] The tryptase solution was prepared by placing 60 μg/mL of tryptase into solution with 10 mM MES (2-[N-Morpholino]ethane sulfonic acid) containing 2 mM CaCl2, 20% glycerol and 50 μg/mL heparin. The enzyme reaction was initiated with the addition of the synthetic tripeptide substrate, tosyl-Gly-Pro-Lys-p-nitroanilide (available from Sigma, 25 μL; 0.5 mM final concentration). […] Initial velocity measurements calculated from the progress curves by a kinetic analysis program (BatchKi; Petr Kuzmic, University of Wisconsin, Madison, Wis.) were used to determine apparent inhibition constants for each inhibitor.

| SMILES | Ki [µM] |
| --- | --- |
| NCc1ccc(C(=O)NCCCCNC(=O)c2ccc(C(=O)NCCCCNC(=O)c3ccc(CN)cc3)cc2)cc1 [Example 34, N,N'-Bis[4-(aminomethylbenzamido)butyl]-terephthalyldiamide] | 0.222 |
| NCc1ccc(CNC(=O)NCC(=O)NCCc2ccc(NC(=O)CNC(=O)NCc3ccc(CN)cc3)cc2)cc1 [Example 50, Bis(N-(4-aminomethylbenzyl)glycylurea)-1,4-phenethylenediamide] | 0.043 |
| CN(Cc1ccc(CN(C)C(=O)CN(C)C(=O)NC[C@H]2CC[C@H](CN)CC2)cc1)C(=O)CN(C)C(=O)NC[C@H]1CC[C@H](CN)CC1 [Example 54, N,N'-Bis(methyl)-bis(sarcosine-trans-1,4-cyclohexylbis(methylamine)urea)-p-xylylene diamide] | 0.608 |
| NCc1ccc(CNC(=O)CNC(=O)OCc2ccc(COC(=O)NCC(=O)NCc3ccc(CN)cc3)cc2)cc1 [Example 1, Bis(p-xylylenediamineglycine)-1,4-benzenedimethanol dicarbamate] | 0.00056 |
| NCc1ccc(CNC(=O)CCC(=O)Nc2ccc(NC(=O)CCC(=O)NCc3ccc(CN)cc3)cc2)cc1 [Example 39, N,N'-Bis((N-(4-aminomethylbenzyl)succinamido))-p-phenethylenediamide] | 0.006 |
| C[C@@H](NC(=O)OCc1ccc(COC(=O)N[C@H](C)C(=O)NCc2ccc(CN)cc2)cc1)C(=O)NCc1ccc(CN)cc1 [Example 14, Bis(p-xylylenediamine-D-alanine)-1,4-benzenedimethanol dicarbamate] | 0.366 |
| CN(Cc1ccc(CN)cc1)C(=O)CNC(=O)OCc1ccc(COC(=O)NCC(=O)N(C)Cc2ccc(CN)cc2)cc1 [Example 32] | 0.874 |
| C[C@H](NC(=O)OCc1ccc(COC(=O)N[C@@H](C)C(=O)NCc2ccc(NC(=N)N)cc2)cc1)C(=O)NCc1ccc(NC(=N)N)cc1 [Example 5, Bis((4-guanidylbenzyl)-L-alanineamide-N^α -carbonyl)-1,4-dimethanolbenzene] | 0.289 |
| NCc1ccc(CNC(=O)CCCC(=O)NCc2ccc(CNC(=O)CCCC(=O)NCc3ccc(CN)cc3)cc2)cc1 [Example 10] | 0.0088 |
| NCC1CCC(C(=O)NCCCC(=O)NCc2ccc(CNC(=O)CCCNC(=O)C3CCC(CN)CC3)cc2)CC1 (stereo not drawn) [Example 49] | 0.366 |
| CN(Cc1ccc(CN)cc1)C(=O)CCC(=O)NCc1ccc(CNC(=O)CCC(=O)N(C)Cc2ccc(CN)cc2)cc1 [Example 30, N,N,-Bis(N-methyl-N-(4-aminomethylbenzyl)-succinamido)-p-xylylene diamide] | 2.3 |
| N=C(N)Nc1ccc(CNC2=CCCC(=O)N2C(=O)OCc2ccc(COC(=O)N3C(=O)CCC=C3NCc3ccc(NC(=N)N)cc3)cc2)cc1 [Example 40, Bis((R,S)-2-(4-guanidinobenzylamino)-2,3-dehydro-6-piperidone)-1,4-benzenedimethanol dicarbamate] | 0.463 |
| NC[C@H]1CC[C@H](C(=O)NCCCCNC(=O)OCc2ccc(COC(=O)NCCCCNC(=O)[C@H]3CC[C@H](CN)CC3)cc2)CC1 [Example 33, N,N'-Bis(trans-4-aminomethyl-cyclohexyl-1-amidobutyl)-1,4-benzene dimethanol dicarbamate] | 0.048 |
| CN(Cc1ccc(CN(C)C(=O)c2ccc(CNC(=O)NC[C@H]3CC[C@H](CN)CC3)cc2)cc1)C(=O)c1ccc(CNC(=O)NC[C@H]2CC[C@H](CN)CC2)cc1 [Example 53] | 1.2 |
| N=C(N)Nc1ccc(CNC(=O)CC(=O)NCc2ccc(CNC(=O)CC(=O)NCc3ccc(NC(=N)N)cc3)cc2)cc1 [Example 36, N,N'-Bis(N-(4-Guanidylbenzylamine)-malonamido)-p-xylylene diamide] | 0.682 |
| C[C@@H](NC(=O)OCc1ccc(COC(=O)N[C@H](C)C(=O)NCc2ccc(NC(=N)N)cc2)cc1)C(=O)NCc1ccc(NC(=N)N)cc1 [Example 6] | 0.364 |
| N=C(N)Nc1ccc(CNC(=O)NCC(=O)NCc2ccc(CNC(=O)CNC(=O)NCc3ccc(NC(=N)N)cc3)cc2)cc1 [Example 48] | 0.7 |
| NCc1cccc(CNC(=O)CCC(=O)NCc2cccc(CNC(=O)CCC(=O)NCc3cccc(CN)c3)c2)c1 [Example 11, N,N'-Bis(N-(3-aminomethylbenzyl)succinamido)-m-xylylene diamide] | 0.127 |
| NC[C@H]1CC[C@H](C(=O)NCCCNC(=O)OCc2ccc(COC(=O)NCCCNC(=O)[C@H]3CC[C@H](CN)CC3)cc2)CC1 [Example 22, N,N'-Bis(trans-4-aminomethylcyclohexyl-1-amido-propylene)-1,4-benzenedimethanol dicarbamate] | 0.918 |
| CN(CC(=O)NCc1ccc(CN)cc1)C(=O)OCc1ccc(COC(=O)N(C)CC(=O)NCc2ccc(CN)cc2)cc1 [Example 18, Bis(p-xylylenediaminesarcosine)-1,4-benzenedimethanol dicarbamate] | 0.005 |

| SMILES | Ki [µM] |
| --- | --- |
| N=C(N)Nc1ccc(CNC(=O)CNC(=O)NCc2ccc(CNC(=O)NCC(=O)NCc3ccc(NC(=N)N)cc3)cc2)cc1 [Example 46, 4-(Guanidinobenzylamido)glycine-1,4-xylylene diurea] | 0.01 |
| CN(Cc1ccc(CN(C)C(=O)CNC(=O)NCc2ccc(CN)cc2)cc1)C(=O)CNC(=O)NCc1ccc(CN)cc1 [Example 52, N,N'-Bis(methyl)-bis(glycine-p-xylylenediamine urea)-p-xylylene diamide] | 0.079 |
| NCc1ccc(CNC(=O)NCC(=O)NCc2ccc(CNC(=O)CNC(=O)NCc3ccc(CN)cc3)cc2)cc1 [Example 47, Bis(N-(4-aminomethylbenzyl)glycylurea)-p-xylylene diamide] | 0.062 |
| CN(Cc1ccc(CN(C)C(=O)CCCC(=O)NCc2ccc(CN)cc2)cc1)C(=O)CCCC(=O)NCc1ccc(CN)cc1 [Example 17, N,N'-Bis(N-(4-aminomethylbenzyl)glutaramido)-N,N'-bis(methyl)-p-xylylene diamide] | 0.014 |
| N=C(N)Nc1ccc(CNC(=O)[C@H](Cc2ccccc2)NC(=O)OCc2ccc(COC(=O)N[C@@H](Cc3ccccc3)C(=O)NCc3ccc(NC(=N)N)cc3)cc2)cc1 [Example 7] | 0.227 |
| CN(Cc1ccc(CN(C)C(=O)CCC(=O)NCC2CCC(CN)CC2)cc1)C(=O)CCC(=O)NCC1CCC(CN)CC1 (stereo not drawn) [Example 25, N,N'-Bis(methyl)-bis(N-(4-aminomethylcyclohexylmethyl)succinamido)-p-xylylene diamide] | 0.118 |
| NCc1ccc(C(=O)NCCCNC(=O)OCc2ccc(COC(=O)NCCCNC(=O)c3ccc(CN)cc3)cc2)cc1 [Example 19, N,N'-Bis(4-aminomethylbenzamidopropylene)-1,4-benzenedimethanol dicarbamate] | 0.005 |
| CN(Cc1ccc(CN(C)C(=O)CCC(=O)NCc2ccc(CN)cc2)cc1)C(=O)CCC(=O)NCc1ccc(CN)cc1 [Example 23] | 0.005 |
| NCC1CCC(CNC(=O)CCCC(=O)NCc2ccc(CNC(=O)CCCC(=O)NCC3CCC(CN)CC3)cc2)CC1 (stereo not drawn) [Example 24, N,N'-Bis(N-(4-aminomethylcyclohexylmethyl)-glutaramido)-p-xylylene diamide] | 0.055 |
| NCc1ccc(NC(=O)CNC(=O)OCc2ccc(COC(=O)NCC(=O)Nc3ccc(CN)cc3)cc2)cc1 [Example 42, Bis((4-aminomethylanilido)glycine)-1,4-benzenedimethanol dicarbamate] | 0.783 |
| NCC1CCCC(CNC(=O)CCC(=O)NCc2ccc(CNC(=O)CCC(=O)NCC3CCCC(CN)C3)cc2)C1 (stereo not drawn) [Example 29, N,N'-Bis(N-(3-aminomethylcyclohexylmethyl)-succinamido)-p-xylylene diamide] | 1.1 |
| NCC1CCC(CNC(=O)CNC(=O)OCc2ccc(COC(=O)NCC(=O)NCC3CCC(CN)CC3)cc2)CC1 (stereo not drawn) [Example 31, Bis(1,4-cyclohexyldimethylamineglycine)-1,4-benzenedimethanol dicarbamate] | 0.012 |
| NCc1ccc(CNC(=O)CCCNC(=O)c2ccc(C(=O)NCCCC(=O)NCc3ccc(CN)cc3)cc2)cc1 [Example 15, N,N'-Bis(N-(4-aminomethylbenzyl)butyramido)terephthalamide] | 0.011 |
| NCc1ccc(C(=O)NCCCC(=O)NCc2ccc(CNC(=O)CCCNC(=O)c3ccc(CN)cc3)cc2)cc1 [Example 12, N,N'-Bis(N-(4-aminomethylbenzamido)-4-aminobutyric)-p-xylylene diamide] | 0.086 |
| CN(Cc1ccc(CN(C)C(=O)CNC(=O)NC[C@H]2CC[C@H](CN)CC2)cc1)C(=O)CNC(=O)NC[C@H]1CC[C@H](CN)CC1 [Example 51, N,N'-Bis(methyl)-bis(glycine-trans-1,4-cyclohexylbis(methylamine)urea)-p-xylylene diamide] | 0.13 |
| NCc1ccc(CNC(=O)CC(=O)NCc2ccc(CNC(=O)CC(=O)NCc3ccc(CN)cc3)cc2)cc1 [Example 9, N,N'-Bis(N-(4-aminomethylbenzl)-malonamido)-p-xylylene diamide] | 0.15 |
| NCc1cccc(CNC(=O)CNC(=O)OCc2ccc(COC(=O)NCC(=O)NCc3cccc(CN)c3)cc2)c1 [Example 44, Bis((3-aminomethylbenzylamido)glycine)-1,4-benzenedimethanol dicarbamate] | 0.055 |
| NCC1CCC(CNC(=O)CCC(=O)NCc2ccc(CNC(=O)CCC(=O)NCC3CCC(CN)CC3)cc2)CC1 (stereo not drawn) [Example 26, N,N'-Bis(N-(4-aminomethylcyclohexylmethyl)-succinamido)-p-xylylene diamide] | 0.123 |
| N=C(N)Nc1ccc(CNC(=O)CCCC(=O)NCc2ccc(CNC(=O)CCCC(=O)NCc3ccc(NC(=N)N)cc3)cc2)cc1 [Example 38] | 0.1 |
